Test results taken from patent EP3360574B1, “MEDICINAL COMPOSITION FOR AMELIORATING AND TREATING INTERVERTEBRAL DISC DEGENERATION AND LOW BACK PAIN, AND METHOD FOR SCREENING THERAPEUTIC AGENT” (Keio University, priority 2015, dated 2017).

Experiments:
[1] = system: MAPKs (p38, ERK, and JNK); assay: MAPK phosphorylation after oxidative stress (Western blotting); type: cell-based, rat; conditions: for phosphorylation of the MAPKs p38, ERK, and JNK: 10 minutes after treatment
Method: Western blotting was performed by a standard method.
Downstream signals of oxidative stress were studied. The involvement of MAPKs (p38, ERK, and JNK) in the downstream system of signals induced by reactive oxygen species was analyzed. […] Protein extraction and Western blotting were performed in the same way as in the experiment using the animal models described above.
Detection was performed using an anti-p38 antibody, an anti-phosphorylated p38 antibody, an anti-JNK antibody, an anti-phosphorylated JNK antibody, an anti-ERK antibody, an anti-phosphorylated ERK antibody, an anti-NF-KB p65 antibody, an anti-phosphorylated NF-κB p65 antibody, or an anti-β-actin antibody (all manufactured by Cell Signaling Technology, Inc.) as a primary antibody, a HRP-conjugated goat anti-rabbit antibody (manufactured by Sigma-Aldrich Co. LLC) as a secondary antibody, and ECL Western Blotting Detection Reagent.
Likewise, downstream signals of oxidative stress were studied by the addition of BSO. Annulus fibrosus cells were treated with 1 mM BSO, collected 0, 5, 10, 30, or 60 minutes later, and analyzed by Western blotting.

[2] = system: rat annulus fibrosus cells; assay: Alteration in gene expression by oxidative stress inducers (RT-PCR); type: cell-based; conditions: 24 hours
Method: (§1) Total RNA was prepared using RNeasy Mini kit (manufactured by Qiagen N.V.) or TRIzol Reagent (manufactured by Thermo Fisher Scientific Inc.). cDNA was synthesized using Prime Script RT Reagent Kit (manufactured by Takara Bio Inc.).
(§2) RT-PCR amplification was performed with Thermal Cycler Dice Real-Time System (manufactured by Takara Bio Inc.) using SYBR Premix Ex Taq (manufactured by Takara Bio Inc.). Expression was normalized to β-actin or hypoxanthine phosphoribosyl transferase (HPRT). The results were analyzed by the ddCt method.
(§3) The PCR primers used were as follows: • TNF-α (F) : 5'-[…]-3' (SEQ ID NO: 1) (R) : 5'-[…]-3' (SEQ ID NO: 2) • MMP-3 (F) : 5'-[…]-3' (SEQ ID NO: 3) (R) : 5'-[…]-3' (SEQ ID NO: 4) • COX-2 (F) : 5'-[…]-3' (SEQ ID NO: 5) (R) : 5'-[…]-3' (SEQ ID NO: 6) • AGC1 (F) : 5'-[…]-3' (SEQ ID NO: 7) (R) : 5'-[…]-3' (SEQ ID NO: 8) • β-actin (F) : 5'-[…]-3' (SEQ ID NO: 9) (R) : 5'-[…]-3' (SEQ ID NO: 10) • HPRT (F) : 5'-[…]-3' (SEQ ID NO: 11) (R) : 5'-[…]-3' (SEQ ID NO: 12)
(§4) Rat annulus fibrosus cells were prepared as follows: rat annulus fibrosus tissues were dissected from the lumbar and coccyx intervertebral discs of 8-week-old female Wistar rats, treated with DMEM containing 0.04% pronase E (manufactured by SERVA Electrophoresis GmbH) at 37°C for 1 hour, and subsequently treated with 0.025% collagenase P (manufactured by Roche Diagnostics K.K.) at 37°C for 4 hours for isolation. The isolated cells were washed with Dulbecco's modified Eagle's medium (DMEM, manufactured by Invitrogen Corp.) containing 5% heat-inactivated fetal bovine serum (manufactured by JRH Biosciences Lenexa). The isolated annulus fibrosus cells were cultured in DMEM containing 10% fetal bovine serum and 1% penicillin-streptomycin under conditions of 5% CO2 at 37°C. The cells were used within the first five passages for analysis.
Rat annulus fibrosus cells were cultured in a medium added with hydrogen peroxide (concentration: 10 µM and 100 µM) or BSO (concentration: 0.2 mM and 1 mM) for 24 hours and collected. RNA was extracted, and the mRNA expression of TNF-α, MMP-3, COX-2, and aggrecan was quantitatively measured by RT-PCR. RNA extraction and RT-PCR were performed in the same way as in the model animals described above.

[3] = system: rat annulus fibrosus cells; assay: Intracellular level of reactive oxygen species (MitoTracker Orange staining, cell sorter); type: cell-based
Method: as §4

[4] = system: intervertebral disc degeneration models; assay: Rat caudal intervertebral disc puncture model, Q-space imaging (QSI) analysis; type: in vivo
Method: (§5) The present inventors prepared rat intervertebral disc degeneration models in the same way as above and conducted QSI analysis. Here, the QSI analysis was conducted using our uniquely developed program, though the analysis can employ software such as dTV II FZR. A puncture group, a NAC group, and a control group each involving 5 rats were subjected to the respective procedures and analyzed. […] The comparison of analysis results among the control group (a and d), the puncture group (b and e), and the NAC group (c and f) is shown.

[5] = system: intervertebral disc degeneration models; assay: Rat caudal intervertebral disc puncture model, therapeutic administration, T2-weighted MRI; type: in vivo, Wistar rats
Method: The involvement of oxidative stress in intervertebral disc degeneration was studied. The caudal intervertebral discs of 8-week-old Wistar rats were punctured using a 23-G needle to prepare intervertebral disc degeneration models. A group that underwent only development without puncture (sham group) was used as a control group. Two months after the puncture, the T2 intramedullary high-intensity area was measured by MRI (GE Sigma Excite HD 1.5T, manufactured by GE Healthcare Corp.) under the following conditions: TR/TE, 3000/86; echo train length, 12; slice thickness, 2 mm; FOV, 10 cm; matrix size 352X224; NEX, 10 times.
The caudal intervertebral discs of 8-week-old female Wistar rats were punctured using a 23-G needle to prepare intervertebral disc degeneration models. The animals were divided into a group given NAC water (1 g/L) from 1 week after the puncture (NAC group) and a group raised with normal water (puncture group). A group that underwent only development without puncture (control group) was used as a control. Whether or not the administration of NAC would suppress intervertebral disc degeneration was studied 2 months after the puncture (see Figure 7A). The average body weight of the rats during the administration of NAC water was 220 g, and the average water intake of 24 hours was 35 g; thus, the rats took 159 mg/kg/day of NAC on average per day. The items to be studied were histological evaluation and a T2 intramedullary high-intensity area by MRI.
as §5

[6] = system: rat annulus fibrosus cells; assay: Effect of antioxidants on oxidative stress induced by TNF-α (gene expression by RT-PCR); type: cell-based; conditions: 24 hours
Method: Next, NAC or tocopherol was analyzed for whether to reduce oxidative stress induced by TNF-α by its addition. 50 ng/ml of TNF-α was added to cells in the presence of 100 µM NAC or 20 mM α-tocopherol, and the cells were collected 24 hours later, followed by gene expression analysis on MMP-3, COX-2, and aggrecan by RT-PCR (Figures 6C and 6D). NAC and tocopherol were also shown to suppress oxidative stress induced by the addition of TNF-α.

[7] = system: intervertebral disc degeneration; conditions: procedures for causing degeneration carried out after 1-week oral administration; Non Patent Literature 5; cited from earlier work
MAPK signaling cascade = assay: Effect on MAPK signaling cascade activation caused by TNF-α (Western blotting); type: cell-based, rat; conditions: 50 ng/ml TNF-α in the presence of 100 µM NAC
Method: NAC was also analyzed for whether to suppress phosphorylation in the MAPK signaling cascade generating downstream signals of oxidative stress (Figure 6E). In the same way as above, cells were treated with 50 ng/ml TNF-α in the presence of 100 µM NAC and analyzed by Western blotting.

[8] = system: rat annulus fibrosus cells; assay: Effect of antioxidants on gene expression under oxidative stress induced by hydrogen peroxide or BSO (RT-PCR); type: cell-based; conditions: 24 hours
Method: as §1, §2, §3
100 µM hydrogen peroxide or 1 mM BSO was added to rat annulus fibrosus cells in the presence of 100 µM NAC, and the cells were cultured for 24 hours, followed by the measurement of the mRNA expression of TNF-α, MMP-3, COX-2, and aggrecan (Figures 4A and 4B).
Hydrogen peroxide or BSO was added to rat annulus fibrosus cells in the presence of 20 mM α-tocopherol, and the cells were cultured for 24 hours, followed by the measurement of the mRNA expression of TNF-α, MMP-3, COX-2, and aggrecan (Figures 5A and 5B). Here, ethanol was used as a solvent for α-tocopherol. Cells cultured in a medium added only with ethanol were used as a control.

COX-2 mRNA expression = assay: Effect of MAPK inhibitors on COX-2 gene expression under oxidative stress (RT-PCR); type: cell-based, rat; conditions: MAPK inhibitor 10 µM, 30 minutes later 100 µM hydrogen peroxide or 1 mM BSO; RT-PCR 24 hours later
Method: Hydrogen peroxide or BSO was added to rat annulus fibrosus cells in the presence of MAPK inhibitors, and their effects on an increase in COX-2 mRNA expression were analyzed. The MAPK inhibitors used were PD98059 (ERK inhibitor; represented by PD in Figure 3), SP600125 (JNK inhibitor; represented by SP in Figure 3), and SB203580 (p38 inhibitor; represented by SB in Figure 3) (all manufactured by Wako Pure Chemical Industries, Ltd.). These MAPK inhibitors were each added at concentration of 10 µM to a medium, and 30 minutes later, 100 µM hydrogen peroxide or 1 mM BSO was added thereto. The expression of COX-2 was analyzed by RT-PCR 24 hours later.

[9] = puncture group versus NAC group
[10] = 100 µM NAC, 100 µM hydrogen peroxide or 1 mM BSO
[11] = hydrogen peroxide 10 µM and 100 µM
[12] = 20 mM α-tocopherol, hydrogen peroxide or BSO, ethanol control

SMILES: CCCCS(=N)(=O)CCC(N)C(=O)O (stereo not drawn) [BSO, buthionine sulfoximine]
- phosphorylation of the MAPKs p38, ERK, and JNK ([1]; 1 mM BSO): strongly phosphorylated
- mRNA expression of COX-2 ([2]; BSO 0.2 mM and 1 mM): concentration-dependent increase
- mRNA expression of MMP-3 ([2]; BSO 0.2 mM and 1 mM): concentration-dependent increase
- mRNA expression of TNF-α ([2]; BSO 0.2 mM and 1 mM): concentration-dependent increase
- mRNA expression of aggrecan ([2]; BSO 0.2 mM and 1 mM): reduced in a concentration-dependent manner
- intracellular level of reactive oxygen species ([3]; 1 mM BSO for 24 hours): increase

SMILES: CC(=O)N[C@@H](CS)C(=O)O [NAC, N-acetylcysteine]
- QSI analysis (probability at zero displacement), difference between the puncture group and the NAC group ([4]; 5 rats per group): showed the difference
- QSI parameter values [4, 9]: significant difference
- effect of administration in an experiment using rats ([5]; 159 mg/kg/day): effective
- T2-weighted images, difference between the puncture group and the NAC group ([5]; 5 rats per group): rarely showed the difference
- T2 high-intensity area ([5]; NAC water (1 g/L, 159 mg/kg/day) from 1 week after puncture, MRI 2 months after puncture, NAC group compared with puncture group): significantly improved
- T2 mapping values obtained from T2-weighted images focused on the nucleus pulposus [5, 9]: did not significantly differ
- oxidative stress induced by the addition of TNF-α (gene expression of MMP-3, COX-2, and aggrecan) ([6]; 50 ng/ml TNF-α in the presence of 100 µM NAC): suppress
- phosphorylation of p38 MAPK ([1]; 100 µM hydrogen peroxide in the presence of 100 µM NAC, 15 minutes): significantly suppressed
- intervertebral disc degeneration [7]: prevented
- activation of the MAPK signaling cascade caused by stimulation with TNF-α (MAPK signaling cascade): suppressed
- increase in the expression of COX-2 by oxidative stress [8, 10]: significantly suppressed
- increase in the expression of MMP-3 by oxidative stress [8, 10]: significantly suppressed
- increase in the expression of TNF-α by oxidative stress [8, 10]: significantly suppressed
- reduction in the expression of aggrecan by oxidative stress [8, 10]: suppressed

SMILES: COc1cccc(-c2cc(=O)c3ccccc3o2)c1N [PD]
- expression of COX-2 (COX-2 mRNA expression): significantly suppressed

SMILES: C[S+]([O-])c1ccc(-c2nc(-c3ccncc3)c(-c3ccc(F)cc3)[nH]2)cc1 (stereo not drawn) [SB]
- expression of COX-2 (COX-2 mRNA expression): significantly suppressed

SMILES: OO [hydrogen peroxide]
- phosphorylation of the MAPKs p38, ERK, and JNK ([1]; 100 µM hydrogen peroxide): strongly phosphorylated
- mRNA expression of COX-2 [2, 11]: concentration-dependent increase
- mRNA expression of MMP-3 [2, 11]: concentration-dependent increase
- mRNA expression of TNF-α [2, 11]: concentration-dependent increase
- mRNA expression of aggrecan [2, 11]: reduced in a concentration-dependent manner
- intracellular level of reactive oxygen species ([3]; 100 µM hydrogen peroxide for 24 hours): increase

SMILES: Cc1c(C)c2c(c(C)c1O)CCC(C)(CCCC(C)CCCC(C)CCCC(C)C)O2 (stereo not drawn) [α-tocopherol]
- oxidative stress induced by the addition of TNF-α (gene expression of MMP-3, COX-2, and aggrecan) ([6]; 50 ng/ml TNF-α in the presence of 20 mM α-tocopherol): suppress
- increase in the expression of COX-2 by oxidative stress [8, 12]: significantly suppressed
- increase in the expression of MMP-3 by oxidative stress [8, 12]: significantly suppressed
- increase in the expression of TNF-α by oxidative stress [8, 12]: significantly suppressed
- reduction in the expression of aggrecan by oxidative stress [8, 12]: suppressed
